Experimental data published in patent US9162993B2, “Preparation and pharmaceuticals of biphenyl benzamide-derived derivatives” (NATIONAL DEFENSE MEDICAL CENTER, priority 2012, dated 2015).

Columns and labels:
[1] = MTT assay, RAW264.7 cell viability; type: cell-based; settings: mouse; RAW 264.7 cells; cytotoxic concentration that produces 50% cell death
Procedure: (§1) The compounds 1 to 24 of the present invention is tested by three pharmacological activity tests as follows: (1) MTT assay to test the RAW264.7 cell (murine monocyte/macrophage cell line) viability; (2) Tartrate-resistant acid phosphatase (TRAP) staining and activity analysis to investigate the cell differentiation activity; (3) The activity test of bone resorption (Pit formation assay).
(§2) The synthesized difunisal derivatives, compounds 1 to 24, were pharmacologically tested to be identified the relationship between their structure and activity. Cell viability was measured by MTT assay in RAW 264.7 cells upon treatment with compounds at 5 μM. CC50 is the cytotoxic concentration that produces 50% (CC50) cell death. […] The multinucleated osteoclasts could be formed by RANKL-induced macrophage cell line […]. RAW 264.7 cells were cultured with the indicated in the presence of drug and RANKL (100 ng/mL). Numbers of TRAP-positive (TRAP^+) multinucleated cells (MNCs) were counted in the presence of RANKL to identify the relationship between osteoclast and bone formation. […] The compound 16 performed the best inhibitory effect in the TRAP staining. The compound 16 was a derivate from compound 4 and its structure was related to compound 4. Therefore, the compound 4 and 16 were performed by TRAP assay to evaluate the effect on osteoclast differentiation by different concentration of compounds. […] According to above result, it can be speculated that: (1) Due to different substitutes on benzene ring of difunisal, the inhibitory ability of RANKL-induced osteoclast differentiation would be different. (2) Due to the electron-withdrawing group substitutes of R1 and R4 on benzene ring, or electron-withdrawing group substitutes derivatives of R2 on benzene ring, such as compound 4. (R1═F and R4═F), compound 6 (R2═CF3), compound 9 (R2═CN) and compound 16 (R1═F and R4═F), (3) compound 4 (R1═F and R4═F) and compound 6 (R2═CF3), a cyclic derivate compound 16 (R1═F and R4═F) and compound 18 (R2═CF3), the inhibitory activity would be stronger.

RAW 264.7 cells = experiment: MTT assay, RAW264.7 cell viability; type: cell-based; settings: MTT assay, compounds at 5 μM
Procedure: as §1, §2

[2] = system: RANKL-induced osteoclast differentiation in RAW 264.7 cells; experiment: TRAP staining, RANKL-induced osteoclast differentiation (TRAP+ multinucleated cells); type: cell-based, murine; settings: Mus musculus, RAW264.7; RAW 264.7 cells, RANKL (100 ng/mL), compounds at 5 μM, TRAP-positive multinucleated cells; read-out: Inhibition of MNCs (%)
Procedure: as §1, §2

NO production = experiment: Measurement of NO concentrations (Griess reaction) in porcine chondrocytes; type: cell-based; settings: Sus scrofa, Chondrocyte, nitrite in supernatants, read-out: anti-inflammatory IC50 (μM) on NO production
Procedure: Porcine cartilage was obtained from the hind leg joints of pigs. The synthesis of chondrocytes from cartilage was performed according to our previous report. After enzymatic digestion of articular cartilage with 2 mg/mL protease in serum-free Dulbecco's modified Eagle's medium (DMEM)/antibiotics, the specimens were then digested overnight with 2 mg/mL collagenase I and 0.9 mg/ml, hyaluronidase in DMEM containing 10% fetal bovine serum (FBS). The cells were collected, passed through a cell strainer (Becton Dickinson, Mountain View, Calif., USA), and cultured in DMEM containing 10% […] and antibiotics for 3-4 days before use.
The measurement of NO release was reflected by determination of its stable end product, nitrite, in supernatants. The Griess reaction was performed with the concentrations of nitrite measured by a spectrophotometer. In brief, an aliquot (100 μL) of culture supernatant was incubated with 50 μL of 0.1% sulfanilamide in 5% phosphoric acid and 50 μL of 0.1% N-1-naphthyl-ethylenediamine dihydrochloride. After 10 min of incubation at room temperature, the absorbance was measured at 550 nm wavelength with a plate reader (recall, Grodig, […]).

In the case of `O=C(O)c1cc(-c2ccc(F)cc2F)ccc1O` [Diflunisal, reference compound], the CC50 [1] is reported as > 20 µM, the “Cell viability (%)” value (RAW 264.7 cells) is reported as 103.82 ± 1.78% and the inhibition at 5 µM [2] is reported as 23.9 ± 1.88%. For the same compound, the IC50 (NO production) was > 10 µM.
With `O=C(Nc1ccc(Cl)cc1F)c1cc(-c2ccc(F)cc2F)ccc1O` [compound 1, N-(4-chloro-2-fluorophenyl)-2′,4′-difluoro-4-hydroxybiphenyl-3-carboxamide] the CC50 [1] was 17.9 µM, the “Cell viability (%)” value (RAW 264.7 cells) was 77.54 ± 1.17% and the inhibition at 5 µM [2] was 44.3 ± 7.93%. It also gave an IC50 (NO production) of 7.94 µM.
For `O=C(Nc1ccc(F)cc1F)c1cc(-c2ccc(F)cc2F)ccc1O` [compound 2, N-(2,4-difluorophenyl)-2′,4′-difluoro-4-hydroxybiphenyl-3-carboxamide], the CC50 [1] was > 20 µM, the “Cell viability (%)” value (RAW 264.7 cells) was 109.62 ± 3.37% and the inhibition at 5 µM [2] was 32.2 ± 5.58%. The IC50 (NO production) was 0.95 µM.
With `O=C(Nc1ccc(F)c(F)c1)c1cc(-c2ccc(F)cc2F)ccc1O` [compound 3] the CC50 [1] was 14.6 µM, the “Cell viability (%)” value (RAW 264.7 cells) was 78.42 ± 3.79% and the inhibition at 5 µM [2] was 47.4 ± 5.58%. For the same compound, the IC50 (NO production) was 0.79 µM.
In the case of `O=C(Nc1ccccc1C(F)(F)F)c1cc(-c2ccc(F)cc2F)ccc1O` [compound 5], the CC50 [1] is reported as > 20 µM, the “Cell viability (%)” value (RAW 264.7 cells) is reported as 99.37 ± 3.71% and the inhibition at 5 µM [2] is reported as 42.8 ± 6.51%. For the same compound, the IC50 (NO production) was > 10 µM.
In the case of `O=C(Nc1cccc(C(F)(F)F)c1)c1cc(-c2ccc(F)cc2F)ccc1O` [compound 6, 2′,4′-difluoro-4-hydroxy-N-(3-(trifluoromethyl)phenyl)[1,1′-biphenyl]-3-carboxamide], the CC50 [1] is reported as 14.3 µM, the “Cell viability (%)” value (RAW 264.7 cells) is reported as 96.73 ± 1.18% and the inhibition at 5 µM [2] is reported as 59.2 ± 2.28%. For the same compound, the IC50 (NO production) was 0.71 µM.
For `O=C(Nc1ccc(C(F)(F)F)cc1)c1cc(-c2ccc(F)cc2F)ccc1O` [compound 7, 2′,4′-difluoro-4-hydroxy-N-(4-(trifluoromethyl)phenyl)-[1,1′-biphenyl]-3-carboxamide], the CC50 [1] was 10.4 µM, the “Cell viability (%)” value (RAW 264.7 cells) was 85.22 ± 3.83% and the inhibition at 5 µM [2] was 51.5 ± 6.25%. It also gave an IC50 (NO production) of 0.64 µM.
In the case of `C#Cc1cccc(NC(=O)c2cc(-c3ccc(F)cc3F)ccc2O)c1` [compound 8, N-(3-ethynylphenyl)-2′,4′-difluoro-4-hydroxy-[1,1′-biphenyl]-3-carboxamide], the CC50 [1] is reported as > 20 µM, the “Cell viability (%)” value (RAW 264.7 cells) is reported as 62.95 ± 0.85% and the inhibition at 5 µM [2] is reported as 40.6 ± 2.01%. For the same compound, the IC50 (NO production) was 2.45 µM.
With `N#Cc1cccc(NC(=O)c2cc(-c3ccc(F)cc3F)ccc2O)c1` [compound 9, N-(3-cyanophenyl)-2′,4′-difluoro-4-hydroxy-[1,1′-biphenyl]-3-carboxamide] the CC50 [1] was 12.3 µM, the “Cell viability (%)” value (RAW 264.7 cells) was 72.15 ± 0.36% and the inhibition at 5 µM [2] was 71.3 ± 3.39%. For the same compound, the IC50 (NO production) was > 10 µM.
With `N#Cc1ccc(NC(=O)c2cc(-c3ccc(F)cc3F)ccc2O)cc1` [compound 10, N-(4-cyanophenyl)-2′,4′-difluoro-4-hydroxy-[1,1′-biphenyl]-3-carboxamide] the CC50 [1] was 14.4 µM, the “Cell viability (%)” value (RAW 264.7 cells) was 96.24 ± 2.29% and the inhibition at 5 µM [2] was 13.9 ± 1.23%. The IC50 (NO production) was > 10 µM.
For `COc1ccc(NC(=O)c2cc(-c3ccc(F)cc3F)ccc2O)cc1OC` [compound 11, N-(3,4-dimethoxyphenyl)-2′,4′-difluoro-4-hydroxy-[1,1′-biphenyl]-3-carboxamid], the CC50 [1] was > 20 µM, the “Cell viability (%)” value (RAW 264.7 cells) was 98.87 ± 2.06% and the inhibition at 5 µM [2] was 51.9 ± 6.5%. It also gave an IC50 (NO production) of 1.5 µM.
For `COc1cccc(NC(=O)c2cc(-c3ccc(F)cc3F)ccc2O)c1` [compound 12, 2′,4′-difluoro-4-hydroxy-N-(3-methoxyphenyl)-[1,1′-biphenyl]-3-carboxamide], the CC50 [1] was > 20 µM, the “Cell viability (%)” value (RAW 264.7 cells) was 104.90 ± 2.62% and the inhibition at 5 µM [2] was 40.8 ± 2.65%. The IC50 (NO production) was 2.24 µM.
For `O=c1oc2ccc(-c3ccc(F)cc3F)cc2c(=O)n1-c1ccc(Cl)cc1F` [compound 13, 3-(4-chloro-2-fluorophenyl)-6-(2,4-difluorophenyl)-2H-benzo[e][1,3]oxazine-2,4(3H)-dione], the CC50 [1] was > 20 µM, the “Cell viability (%)” value (RAW 264.7 cells) was 96.22 ± 0.53% and the inhibition at 5 µM [2] was 19.4 ± 1.4%. The IC50 (NO production) was 1.08 µM.
In the case of `O=c1oc2ccc(-c3ccc(F)cc3F)cc2c(=O)n1-c1ccc(F)cc1F` [compound 14, 3,6-bis(2,4-difluorophenyl)-2H-benzo[e][1,3]oxazine-2,4(3H)-dione], the CC50 [1] is reported as 12.7 µM, the “Cell viability (%)” value (RAW 264.7 cells) is reported as 96.49 ± 1.86% and the inhibition at 5 µM [2] is reported as 42.3 ± 6.62%. It also gave an IC50 (NO production) of 1.26 µM.
With `O=c1oc2ccc(-c3ccc(F)cc3F)cc2c(=O)n1-c1ccc(F)c(F)c1` [compound 15] the CC50 [1] was 9.96 µM, the “Cell viability (%)” value (RAW 264.7 cells) was 72.15 ± 0.43% and the inhibition at 5 µM [2] was 17.4 ± 7.49%. For the same compound, the IC50 (NO production) was 0.61 µM.
In the case of `O=c1oc2ccc(-c3ccc(F)cc3F)cc2c(=O)n1-c1ccccc1C(F)(F)F` [compound 17, 6-(2,4-difluorophenyl)-3-(2-(trifluoromethy)phenyl)-2H-benzo[e][1,3]oxazine-2,4(3H)-dione], the CC50 [1] is reported as 15.1 µM, the “Cell viability (%)” value (RAW 264.7 cells) is reported as 95.53 ± 3.86% and the inhibition at 5 µM [2] is reported as 31.6 ± 4%. For the same compound, the IC50 (NO production) was > 10 µM.
With `O=c1oc2ccc(-c3ccc(F)cc3F)cc2c(=O)n1-c1cccc(C(F)(F)F)c1` [compound 18, 6-(2,4-difluorophenyl)-3-(3-(trifluoromethyl)phenyl)-2H-benzo[e][1,3]oxazine-2,4(3H)-dione] the CC50 [1] was 13 µM, the “Cell viability (%)” value (RAW 264.7 cells) was 100.13 ± 0.94% and the inhibition at 5 µM [2] was 62.9 ± 2.65%. For the same compound, the IC50 (NO production) was 0.55 µM.
With `O=c1oc2ccc(-c3ccc(F)cc3F)cc2c(=O)n1-c1ccc(C(F)(F)F)cc1` [compound 19, 6-(2,4-difluorophenyl)-3-(4-(trifluoromethyl)phenyl)-2H-benzo[e][1,3]oxazine-2,4(3H)-dione] the CC50 [1] was 15.5 µM, the “Cell viability (%)” value (RAW 264.7 cells) was 103.01 ± 2.51% and the inhibition at 5 µM [2] was 16.9 ± 4.61%. It also gave an IC50 (NO production) of 0.75 µM.
For `C#Cc1cccc(-n2c(=O)oc3ccc(-c4ccc(F)cc4F)cc3c2=O)c1` [compound 20, 6-(2,4-difluorophenyl)-3-(3-ethynylphenyl)-2H-benzo[e][1,3]oxazine-2,4(3H)-dione], the CC50 [1] was 11 µM, the “Cell viability (%)” value (RAW 264.7 cells) was 88.38 ± 4.65% and the inhibition at 5 µM [2] was 57.5 ± 3.25%. It also gave an IC50 (NO production) of 1.63 µM.
In the case of `N#Cc1cccc(-n2c(=O)oc3ccc(-c4ccc(F)cc4F)cc3c2=O)c1` [compound 21, 3-(6-(2,4-difluorophenyl)-2,4-dioxo-2H-benzo[e][1,3]oxazin-3(4H)-yl)benzonitrile], the CC50 [1] is reported as 14.9 µM, the “Cell viability (%)” value (RAW 264.7 cells) is reported as 102.79 ± 1.93% and the inhibition at 5 µM [2] is reported as 34 ± 6.98%. For the same compound, the IC50 (NO production) was > 10 µM.
In the case of `N#Cc1ccc(-n2c(=O)oc3ccc(-c4ccc(F)cc4F)cc3c2=O)cc1` [compound 22, 4-(6-(2,4-difluorophenyl)-2,4-dioxo-2H-benzo[e][1,3]oxazin-3(4H)-yl)benzonitrile], the CC50 [1] is reported as > 20 µM, the “Cell viability (%)” value (RAW 264.7 cells) is reported as 108.33 ± 1.10% and the inhibition at 5 µM [2] is reported as 29.4 ± 5.48%. For the same compound, the IC50 (NO production) was 0.55 µM.
With `COc1ccc(-n2c(=O)oc3ccc(-c4ccc(F)cc4F)cc3c2=O)cc1OC` [compound 23, 6-(2,4-difluorophenyl)-3-(3,4-dimethoxyphenyl)-2H-benzo[e][1,3]oxazine-2,4(3H)-dione] the CC50 [1] was > 20 µM, the “Cell viability (%)” value (RAW 264.7 cells) was 103.05 ± 4.03% and the inhibition at 5 µM [2] was 21.2 ± 2.49%. For the same compound, the IC50 (NO production) was 0.47 µM.
In the case of `COc1cccc(-n2c(=O)oc3ccc(-c4ccc(F)cc4F)cc3c2=O)c1` [compound 24, 6-(2,4-difluorophenyl)-3-(3-methoxyphenyl)-2H-benzo[e][1,3]oxazine-2,4(3H)-dione], the CC50 [1] is reported as > 20 µM, the “Cell viability (%)” value (RAW 264.7 cells) is reported as 105.53 ± 4.7% and the inhibition at 5 µM [2] is reported as 30.8 ± 5.77%. It also gave an IC50 (NO production) of 1.95 µM.
